# Assay results: US20130035326A1 (AMBIT BIOSCIENCES CORPORATION, priority 2009, published 2013)
# Legend:
# KIT kinase = molecular target: T1, KIT kinase (Homo sapiens, UniProt P10721); assay: Competition binding assay, KIT Kd
# T1 construct: made in house; host or cells: T7 phage display or HEK-293 cells
# Procedure: (§1) In certain embodiments, competition binding assays were performed as described in Fabian et al., Nature Biotechnology 2005, 23,329-336.
# (§2) Competition binding assays used herein were developed, validated and performed as described in Fabian et al., Nature Biotechnology 2005, 23,329-336. Kinases were produced as fusions to T7 phage (See, Fabian et al. or WO04/015142) or alternatively, the kinases were expressed in HEK-293 cells and subsequently tagged with DNA for PCR detection (See, WO08/005,310). For the binding assays, streptavidin-coated magnetic beads were treated with biotinylated affinity ligands for 30 min at room temperature to generate affinity resins. The liganded beads were blocked with excess biotin and washed with blocking buffer (SeaBlock (Pierce), 1% BSA, 0.05% Tween 20, 1 mM DTT) to remove unbound ligand and to reduce non-specific binding. Binding reactions were assembled by combining kinase, liganded affinity beads, and test compounds in 1× binding buffer (20% SeaBlock, 0.17×PBS, 0.05% Tween 20, 6 mM DTT). Test compounds were prepared as 100× stocks in DMSO and diluted into the aqueous environment. Kds were determined using an eleven point threefold serial dilutions. DMSO or control compounds were was added to control assays lacking a test compound. Primary screen assays were performed in polypropylene 384-well plates in a final volume of 20-40 μL, while Kd determinations were performed in polystyrene 96-well plates in a final volume of 135 μL. The assay plates were incubated at room temperature with shaking for 1 hour to allow the binding reactions to reach equilibrium, and the affinity beads were washed extensively with wash buffer (1×PBS, 0.05% Tween 20) to remove unbound protein. The beads were then resuspended in elution buffer (1×PBS, 0.05% Tween 20, 0.5 μM non-biotinylated affinity ligand) and incubated at room temperature with shaking for 30 min. The kinase concentration in the eluates was measured by quantitative PCR.
# CSF-1R kinase = molecular target: T2, CSF-1R kinase (Homo sapiens, UniProt P07333); assay: Competition binding assay, CSF-1R Kd
# T2 construct: made in house; host or cells: T7 phage display or HEK-293 cells
# Procedure: as §1, §2
# MV4-11 cells = assay: MV4-11 cell proliferation assay (Alamar Blue); type: cell-based; details: Homo sapiens, MV4-11, 72 h, 3 days incubation
# Procedure: The compounds disclosed herein were tested in an MV4-11 cell proliferation assay to determine their cellular potency against Flt3. MV4-11 cells carry ITD mutation within juxtamembrane domain of Flt3 kinase which renders the kinase constitutively active. […] This assay measures the potency of compounds as Flt3 inhibitors by measuring the reduction of Alamar Blue reagent by viable cells.
# MV4-11 cells were grown in an incubator at 37° C. under 5% CO2 in Iscove's media (Celgro) with 10% FBS. The cell density was kept between 1e5 and 8e5 cells/mL.
# On day one of the experiment, cells were harvested and spun at 500 g for 5 min at 4° C., the supernatant aspirated and the cells resuspended in Iscove's media with 0.5% FBS. Cell density was maintained at 7.5e5 to achieve maximum viability of the cells. The resuspended cells were incubated at 37° C. in 5% CO2 overnight.
# On day two of the experiment, cells were diluted to 6.4e5/mL with Iscove's media with 0.5% FBS. 100 μL of the cell suspension (64,000 cells) were aliquoted into each well of a 96-well TC-treated plate. Compounds were added at 9 different concentrations, with half-log intervals alongside a control reference compound serving as a positive control. Final DMSO concentration was kept at 0.5% and final volume at 200 μL. The cells were then incubated at 37° C. under 5% CO2 for 3 days.
# On day five of the experiment, 40 μL of Alamar Blue reagent was added to each well and the mixture was allowed to incubate for 3 hours. Alamar Blue fluorescence was measured using SoftMax Pro software at 560 nm (excitation) and 590 nm (emission). IC50s were generated as an average of duplicates and represents the concentration of test compound that achieves 50% inhibition of cellular proliferation compared to negative control.
# FLT3 kinase = molecular target: T3, FLT3 kinase (Homo sapiens, UniProt P36888); assay: Competition binding assay, FLT3 Kd
# T3 construct: made in house; host or cells: T7 phage display or HEK-293 cells
# T3 sequence (P36888 27-993): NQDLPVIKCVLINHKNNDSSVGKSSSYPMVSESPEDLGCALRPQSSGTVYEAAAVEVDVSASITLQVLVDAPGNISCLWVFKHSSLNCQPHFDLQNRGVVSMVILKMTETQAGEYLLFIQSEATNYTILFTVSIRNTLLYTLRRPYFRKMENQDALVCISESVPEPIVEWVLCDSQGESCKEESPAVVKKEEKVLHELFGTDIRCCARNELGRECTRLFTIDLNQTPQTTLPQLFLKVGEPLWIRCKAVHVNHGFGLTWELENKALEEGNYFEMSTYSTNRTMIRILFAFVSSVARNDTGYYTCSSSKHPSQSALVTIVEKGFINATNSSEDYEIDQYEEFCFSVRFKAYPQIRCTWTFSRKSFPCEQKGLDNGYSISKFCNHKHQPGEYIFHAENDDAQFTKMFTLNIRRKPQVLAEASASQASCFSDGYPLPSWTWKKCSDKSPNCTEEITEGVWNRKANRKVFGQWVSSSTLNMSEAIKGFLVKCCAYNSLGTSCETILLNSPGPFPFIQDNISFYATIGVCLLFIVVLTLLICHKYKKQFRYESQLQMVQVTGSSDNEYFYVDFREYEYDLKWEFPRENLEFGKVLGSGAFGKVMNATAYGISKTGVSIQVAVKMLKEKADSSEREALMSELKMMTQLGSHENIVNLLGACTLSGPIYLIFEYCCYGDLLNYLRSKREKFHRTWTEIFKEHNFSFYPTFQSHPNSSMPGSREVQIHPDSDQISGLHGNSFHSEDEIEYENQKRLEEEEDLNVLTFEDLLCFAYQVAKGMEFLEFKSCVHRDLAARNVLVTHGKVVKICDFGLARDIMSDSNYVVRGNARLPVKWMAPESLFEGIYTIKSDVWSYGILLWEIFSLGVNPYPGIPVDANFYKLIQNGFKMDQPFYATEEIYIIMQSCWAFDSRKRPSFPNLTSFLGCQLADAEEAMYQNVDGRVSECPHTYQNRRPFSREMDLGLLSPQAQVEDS
# Procedure: as §1, §2
# T1 sequence (P10721 26-976): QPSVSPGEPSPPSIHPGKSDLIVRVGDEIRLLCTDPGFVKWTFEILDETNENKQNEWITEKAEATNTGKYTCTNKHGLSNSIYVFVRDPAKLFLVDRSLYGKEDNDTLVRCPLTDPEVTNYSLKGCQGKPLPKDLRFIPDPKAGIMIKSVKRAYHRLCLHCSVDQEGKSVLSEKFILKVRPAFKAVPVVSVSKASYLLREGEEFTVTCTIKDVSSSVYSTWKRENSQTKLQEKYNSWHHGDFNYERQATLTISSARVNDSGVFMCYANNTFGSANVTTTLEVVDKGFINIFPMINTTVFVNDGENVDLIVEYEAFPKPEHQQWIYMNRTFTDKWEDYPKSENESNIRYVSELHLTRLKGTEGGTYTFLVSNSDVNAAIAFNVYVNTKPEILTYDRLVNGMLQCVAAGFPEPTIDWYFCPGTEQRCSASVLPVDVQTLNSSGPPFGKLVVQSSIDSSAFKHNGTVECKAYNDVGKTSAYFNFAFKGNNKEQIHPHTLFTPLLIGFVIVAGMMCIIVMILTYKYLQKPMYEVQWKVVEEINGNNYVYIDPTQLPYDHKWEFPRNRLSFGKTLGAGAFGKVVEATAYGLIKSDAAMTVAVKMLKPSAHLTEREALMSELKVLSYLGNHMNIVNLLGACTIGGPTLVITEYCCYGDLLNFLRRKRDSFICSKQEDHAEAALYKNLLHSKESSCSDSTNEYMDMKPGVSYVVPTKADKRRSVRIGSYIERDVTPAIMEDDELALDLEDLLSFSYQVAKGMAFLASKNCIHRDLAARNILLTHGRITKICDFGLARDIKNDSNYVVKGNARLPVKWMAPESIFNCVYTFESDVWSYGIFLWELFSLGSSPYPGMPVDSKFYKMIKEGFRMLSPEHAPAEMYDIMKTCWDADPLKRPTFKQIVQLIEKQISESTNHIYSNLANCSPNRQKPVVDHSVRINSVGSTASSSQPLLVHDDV
# T2 sequence (P07333 20-972): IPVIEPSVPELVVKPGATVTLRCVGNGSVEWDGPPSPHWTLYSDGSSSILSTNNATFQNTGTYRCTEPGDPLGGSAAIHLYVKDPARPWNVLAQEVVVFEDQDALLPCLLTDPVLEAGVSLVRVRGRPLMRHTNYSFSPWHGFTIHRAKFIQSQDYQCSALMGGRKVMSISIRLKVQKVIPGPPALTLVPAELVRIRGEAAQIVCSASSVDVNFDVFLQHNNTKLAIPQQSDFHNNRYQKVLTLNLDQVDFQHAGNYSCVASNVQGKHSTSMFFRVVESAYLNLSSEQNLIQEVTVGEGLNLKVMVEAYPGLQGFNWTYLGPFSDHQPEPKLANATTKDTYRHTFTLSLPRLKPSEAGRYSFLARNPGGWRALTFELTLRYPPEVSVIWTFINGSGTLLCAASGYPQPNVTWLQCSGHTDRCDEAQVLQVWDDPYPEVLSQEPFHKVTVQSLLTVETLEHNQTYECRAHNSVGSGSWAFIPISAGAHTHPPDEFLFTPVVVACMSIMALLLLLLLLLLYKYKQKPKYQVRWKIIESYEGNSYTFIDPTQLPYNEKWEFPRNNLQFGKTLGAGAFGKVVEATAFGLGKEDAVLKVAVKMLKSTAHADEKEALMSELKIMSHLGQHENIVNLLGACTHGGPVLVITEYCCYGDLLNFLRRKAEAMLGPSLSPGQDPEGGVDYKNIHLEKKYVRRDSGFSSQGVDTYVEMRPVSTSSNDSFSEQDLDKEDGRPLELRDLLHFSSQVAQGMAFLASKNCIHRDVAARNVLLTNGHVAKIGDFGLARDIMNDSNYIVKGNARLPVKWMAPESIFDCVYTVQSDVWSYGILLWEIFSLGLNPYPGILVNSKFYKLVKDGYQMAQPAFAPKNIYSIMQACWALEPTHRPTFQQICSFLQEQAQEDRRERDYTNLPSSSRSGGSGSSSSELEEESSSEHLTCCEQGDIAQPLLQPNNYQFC
SMILES,Kd (KIT kinase) [nM],Kd (CSF-1R kinase) [nM],IC50 (MV4-11 cells) [nM],Kd (FLT3 kinase) [nM]
"CC(C(=O)Nc1cc(C(C)(C)C)on1)c1ccc(-c2ccc(N)nc2)cc1 (racemic) [Example 71, 2-(4-(6-aminopyridin-3-yl)phenyl)-N-(5-tert-butylisoxazol-3-yl) propanamide]",10 to 100,10 to 100,10 to 100,1 to 10
"CC(C)(C)c1cc(NC(=O)Nc2ccc(-c3ccc(NCCN4CCCCC4)nc3)cc2F)no1 [Example 27, 1-(5-tert-butylisoxazol-3-yl)-3-(2-fluoro-4-(6-(2-(piperidin-1-yl)ethylamino)pyridin-3-yl)phenyl)urea]",≤ 1,≤ 10,10 to 100,≤ 1
"CC(C)(C)c1cc(NC(=O)Nc2ccc(-c3ccc(NCCCN4CCOCC4)nc3)cc2)no1 [Example 28, 1-(5-tert-butylisoxazol-3-yl)-3-(4-(6-(3-morpholinopropylamino)pyridin-3-yl)phenyl)urea]",≤ 1,≤ 10,≤ 1,≤ 1
"CN1CCCC1CCNc1ccc(-c2ccc(NC(=O)Nc3cc(C(C)(C)C)on3)cc2)cn1 (stereo not drawn) [Example 29, 1-(5-tert-butylisoxazol-3-yl)-3-(4-(6-(2-(1-methylpyrrolidin-2-yl)ethylamino)pyridin-3-yl)phenyl)urea]",≤ 1,≤ 10,1 to 10,≤ 1
"CCN1CCCC1CNc1ccc(-c2ccc(NC(=O)Nc3cc(C(C)(C)C)on3)cc2)cn1 (stereo not drawn) [Example 30, 1-(5-tert-butylisoxazol-3-yl)-3-(4-(6-((1-ethylpyrrolidin-2-yl)methylamino)pyridin-3-yl)phenyl)urea]",≤ 1,10 to 100,10 to 100,1 to 10
"CN(C(=O)Nc1cc(C(C)(C)C)on1)c1ccc(-c2ccc(N)nc2)cc1 [Example 31, 1-(4-(6-aminopyridin-3-yl)phenyl)-3-(5-tert-butylisoxazol-3-yl)-1-methylurea]",≤ 1,≤ 10,10 to 100,≤ 1
"CC(C)(F)c1cc(NC(=O)Nc2ccc(-c3ccc(N)nc3)cc2)on1 [Example 32, 5-(4-(3-(3-(2-fluoropropan-2-yl)isoxazol-5-yl)ureido)phenyl)pyridin-2-aminium methanesulfonate]",≤ 1,≤ 10,1 to 10,≤ 1
"Nc1ccc(-c2ccc(NC(=O)Nc3cc(C4(C(F)(F)F)CC4)on3)cc2)cn1 [Example 33, 5-(4-(3-(5-(1-(trifluoromethyl)cyclopropyl)isoxazol-3-yl)ureido)phenyl)pyridin-2-aminium methanesulfonate]",≤ 1,≤ 10,≤ 1,≤ 1
"CC(CF)(CF)c1cc(NC(=O)Nc2ccc(-c3ccc(N)nc3)cc2)no1 [Example 34, 5-(4-(3-(5-(1,3-difluoro-2-methylpropan-2-yl)isoxazol-3-yl)ureido)phenyl)pyridin-2-aminium methanesulfonate]",≤ 1,≤ 10,≤ 1,≤ 1
